From PMC11851430, “Workflow for E3 Ligase Ligand Validation for PROTAC Development” (ACS Chemical Biology, 2025)

Columns and labels:
GSK3BB = molecular target: T1, GSK3BB (Homo sapiens, UniProt P49841); assay: DSF assay; assay type: binding; conditions: 20 µM compound
T1 construct: purchased in-house DSF panel (SGC-style construct names; the trailing A/B is a construct suffix)

DCAMKL1A = molecular target: T2, DCAMKL1A (Homo sapiens, UniProt O15075); assay: DSF assay; assay type: binding; conditions: 20 µM compound
T2 construct: purchased in-house DSF panel (SGC-style construct names; the trailing A/B is a construct suffix)
T2 sequence (O15075 372-649): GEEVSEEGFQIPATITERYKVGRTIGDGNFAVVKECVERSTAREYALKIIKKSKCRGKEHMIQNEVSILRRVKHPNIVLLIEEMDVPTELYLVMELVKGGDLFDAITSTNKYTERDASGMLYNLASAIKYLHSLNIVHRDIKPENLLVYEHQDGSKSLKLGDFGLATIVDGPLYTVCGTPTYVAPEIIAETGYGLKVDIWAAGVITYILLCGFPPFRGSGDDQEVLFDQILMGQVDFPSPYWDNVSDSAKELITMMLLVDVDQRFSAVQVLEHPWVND

ULK3A = molecular target: T3, ULK3A (Homo sapiens, UniProt Q6PHR2); assay: DSF assay; assay type: binding; conditions: 20 µM compound
T3 construct: purchased in-house DSF panel (SGC-style construct names; the trailing A/B is a construct suffix)
T3 sequence (Q6PHR2 1-277): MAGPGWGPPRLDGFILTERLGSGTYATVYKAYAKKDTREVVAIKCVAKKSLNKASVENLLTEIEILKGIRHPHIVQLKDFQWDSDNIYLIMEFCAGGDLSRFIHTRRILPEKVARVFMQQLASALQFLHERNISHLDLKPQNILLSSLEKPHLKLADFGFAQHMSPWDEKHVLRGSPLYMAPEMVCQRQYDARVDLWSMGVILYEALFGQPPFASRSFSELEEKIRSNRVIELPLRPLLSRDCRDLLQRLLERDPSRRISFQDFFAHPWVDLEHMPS

STK39A = molecular target: T4, STK39A (Homo sapiens, UniProt Q9UEW8); assay: DSF assay; assay type: binding; conditions: 20 µM compound
T4 construct: purchased in-house DSF panel (SGC-style construct names; the trailing A/B is a construct suffix)

MAPK6 = molecular target: T5, MAPK6 (Homo sapiens, UniProt Q16659); assay: DSF assay; assay type: binding; conditions: 20 µM compound
T5 construct: purchased in-house DSF panel (SGC-style construct names; the trailing A/B is a construct suffix)

PHKG2A = molecular target: T6, PHKG2A (Homo sapiens, UniProt P15735); assay: DSF assay; assay type: binding; conditions: 20 µM compound
T6 construct: purchased in-house DSF panel (SGC-style construct names; the trailing A/B is a construct suffix)
T6 sequence (P15735 6-293): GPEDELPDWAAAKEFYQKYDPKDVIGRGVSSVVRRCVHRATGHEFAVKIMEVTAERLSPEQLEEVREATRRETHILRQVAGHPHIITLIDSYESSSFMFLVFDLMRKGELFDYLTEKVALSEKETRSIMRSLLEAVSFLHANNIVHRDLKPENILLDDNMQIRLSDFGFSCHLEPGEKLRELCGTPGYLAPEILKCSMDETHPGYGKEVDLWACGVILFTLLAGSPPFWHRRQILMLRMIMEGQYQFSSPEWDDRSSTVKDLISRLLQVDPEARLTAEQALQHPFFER

MAP2K6A = molecular target: T7, MAP2K6A (Homo sapiens, UniProt P52564); assay: DSF assay; assay type: binding; conditions: 20 µM compound
T7 construct: purchased in-house DSF panel (SGC-style construct names; the trailing A/B is a construct suffix)
T7 sequence (P52564 1-334): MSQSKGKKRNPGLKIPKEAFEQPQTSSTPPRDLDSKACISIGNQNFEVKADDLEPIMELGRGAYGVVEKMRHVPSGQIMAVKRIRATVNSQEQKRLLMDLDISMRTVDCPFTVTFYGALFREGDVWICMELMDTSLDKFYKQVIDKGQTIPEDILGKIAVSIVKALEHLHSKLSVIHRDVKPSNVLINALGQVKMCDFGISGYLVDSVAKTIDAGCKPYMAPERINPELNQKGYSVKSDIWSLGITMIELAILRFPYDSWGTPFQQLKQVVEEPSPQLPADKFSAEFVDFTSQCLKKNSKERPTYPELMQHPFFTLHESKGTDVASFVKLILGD

TOPKA = molecular target: T8, TOPKA (Homo sapiens, UniProt Q96KB5); assay: DSF assay; assay type: binding; conditions: 20 µM compound
T8 construct: purchased in-house DSF panel (SGC-style construct names; the trailing A/B is a construct suffix)
T8 sequence (Q96KB5 32-322): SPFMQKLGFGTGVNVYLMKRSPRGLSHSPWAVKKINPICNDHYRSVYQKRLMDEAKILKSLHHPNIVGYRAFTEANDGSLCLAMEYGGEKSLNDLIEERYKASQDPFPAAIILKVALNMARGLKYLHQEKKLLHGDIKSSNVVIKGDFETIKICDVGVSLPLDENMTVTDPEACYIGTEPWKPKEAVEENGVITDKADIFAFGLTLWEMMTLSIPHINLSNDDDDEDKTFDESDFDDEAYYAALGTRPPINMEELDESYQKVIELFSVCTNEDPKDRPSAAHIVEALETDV

AURKA = molecular target: T9, AURKA (Homo sapiens, UniProt O14965); assay: Western blot assay; assay type: cell-based; design: endogenous in cells; host or cells: Jurkat; conditions: Jurkat cells, 6 h
T9 sequence (O14965 1-403): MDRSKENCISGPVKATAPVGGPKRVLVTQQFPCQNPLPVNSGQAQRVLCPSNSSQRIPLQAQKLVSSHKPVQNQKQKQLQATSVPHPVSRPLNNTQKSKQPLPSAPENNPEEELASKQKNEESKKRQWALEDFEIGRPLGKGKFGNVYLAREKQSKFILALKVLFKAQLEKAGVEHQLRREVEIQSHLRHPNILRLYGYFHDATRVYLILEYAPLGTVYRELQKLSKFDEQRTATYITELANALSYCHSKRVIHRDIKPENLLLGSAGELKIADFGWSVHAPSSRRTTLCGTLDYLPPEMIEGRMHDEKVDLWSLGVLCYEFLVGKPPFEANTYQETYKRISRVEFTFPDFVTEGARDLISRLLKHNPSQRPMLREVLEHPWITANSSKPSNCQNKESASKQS
Description: Two mL of Jurkat cells were seeded into 6 well plates (Greiner) at a density of 5·10 5 cells/mL.
The following day, cells were treated with compounds at according concentrations or DMSO for 6 hours and then lysed with 6 M Urea at 4 °C for 20 minutes. The lysates were centrifuged for 15 minutes at 16000 g and the supernatant was collected to perform the Western-Blot.
Protein quantification was performed using nanodrop One. The SDS samples were prepared […]
The samples were separated by a BIS-TRIS polyacrylamide gel polyacrylamide gel, 100 V for 1:45) followed by transfer to PVDF membranes (Millipore) at 350 mA for 140 minutes. The membranes were blocked using 5%wt/vol BSA (in TBS-T, 20 mM Tris-HCl, pH 7.5, 150 mM NaCl and 0.1% (vol/vol) Tween 20) at room temperature for 1 hour.
The blots were incubated with respective primary antibodies at 1:1000 dilution (Cell Signaling technologies: Aurora A (D3E4Q), ITK (2F12) and GAPDH (D4C6R)) at 4 °C overnight. The blots were washed with TBS-T thrice and incubated with 1:5000 dilution of horseradish peroxidase (HRP)-labelled respective secondary antibodies (Cell Signaling technologies, Anti- […]
The blots were washed with TBS-T thrice and then incubated with chemiluminescent HRP substrate (Bio-Rad) for 2 minutes. The blots were imaged and the signals were detected using the Amersham ImageQuant 800 (Cytiva).
Cell culture. Human MV4-11 ([…]) and human Jurkat ([…]) cells were cultured in RPMI- […]
°C in 5% CO2. Both media were supplemented with 10% FBS and 1% penicillin/streptomycin. […]

T1 sequence (P49841 35-386): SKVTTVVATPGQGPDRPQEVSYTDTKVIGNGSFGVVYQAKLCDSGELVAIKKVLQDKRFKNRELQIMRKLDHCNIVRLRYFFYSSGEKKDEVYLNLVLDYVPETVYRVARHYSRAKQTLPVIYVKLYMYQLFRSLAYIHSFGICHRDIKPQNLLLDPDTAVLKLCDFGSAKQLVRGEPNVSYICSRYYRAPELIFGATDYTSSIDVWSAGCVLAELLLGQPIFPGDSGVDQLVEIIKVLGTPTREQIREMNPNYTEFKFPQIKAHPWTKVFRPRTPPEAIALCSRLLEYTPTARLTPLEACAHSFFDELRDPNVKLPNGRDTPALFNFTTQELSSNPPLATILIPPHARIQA
T5 sequence (Q16659 9-327): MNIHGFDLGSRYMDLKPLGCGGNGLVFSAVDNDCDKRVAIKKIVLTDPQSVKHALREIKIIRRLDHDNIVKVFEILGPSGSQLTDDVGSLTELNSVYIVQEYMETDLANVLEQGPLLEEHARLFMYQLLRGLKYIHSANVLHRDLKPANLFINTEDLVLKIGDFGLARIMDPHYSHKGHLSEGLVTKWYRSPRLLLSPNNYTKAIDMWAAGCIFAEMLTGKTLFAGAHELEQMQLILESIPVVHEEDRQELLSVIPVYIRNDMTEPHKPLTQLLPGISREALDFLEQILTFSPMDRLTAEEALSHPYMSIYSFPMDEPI

ΔTm at 20 µM (GSK3BB)	ΔTm at 20 µM (DCAMKL1A)	ΔTm at 20 µM (ULK3A)	ΔTm at 20 µM (STK39A)	ΔTm at 20 µM (MAPK6)	ΔTm at 20 µM (PHKG2A)	ΔTm at 20 µM (MAP2K6A)	ΔTm at 20 µM (TOPKA)	AURKA protein levels (Western blot) (AURKA)	Structure (SMILES)
–	–	–	–	–	–	–	–	only a weak reduction in AURKA levels	Cc1ncsc1-c1ccc(CNC(=O)[C@@H]2C[C@@H](O)CN2C(=O)[C@@H](NC(=O)CCOCCOCCOCCOCCN2CCN(c3ccc(Nc4ncc(Cl)c(Nc5ccccc5C(N)=O)n4)cc3)CC2)C(C)(C)C)cc1 [6-b]
–	–	–	–	–	–	–	–	no effect on AURKA levels	Cc1ncsc1-c1ccc(CNC(=O)[C@@H]2C[C@H](O)CN2C(=O)[C@@H](NC(=O)CCOCCOCCOCCOCCN2CCN(c3ccc(Nc4ncc(Cl)c(Nc5ccccc5C(N)=O)n4)cc3)CC2)C(C)(C)C)cc1 [6-b^neg]
14.4 °C	0.68 °C	15.4 °C	5.53 °C	-0.45 °C	7.46 °C	8.41 °C	2.93 °C	–	CCOC(=O)c1cc(Nc2cc(C3CC3)[nH]n2)nc(Nc2ccc(CC#N)cc2)n1 [compound 5]

Continued, molecule first:

Structure (SMILES)	ΔTm at 20 µM (GSK3BB)	ΔTm at 20 µM (DCAMKL1A)	ΔTm at 20 µM (ULK3A)	ΔTm at 20 µM (STK39A)	ΔTm at 20 µM (MAPK6)	ΔTm at 20 µM (PHKG2A)	ΔTm at 20 µM (MAP2K6A)	ΔTm at 20 µM (TOPKA)	AURKA protein levels (Western blot) (AURKA)
CC(C)(C)OC(=O)NCCOCCOCCOCCOCCC(=O)N1CCN(c2cc(Nc3cc(C4CC4)[nH]n3)nc(Nc3ccc(CC#N)cc3)n2)CC1 [4-L]	14.8 °C	0.22 °C	18.5 °C	6.22 °C	-0.18 °C	8.76 °C	5.77 °C	0.95 °C	–
Cc1ncsc1-c1ccc(CNC(=O)[C@@H]2C[C@@H](O)CN2C(=O)[C@@H](NC(=O)CCOCCOCCOCCN2CCN(c3cc(Nc4cc(C5CC5)[nH]n4)nc(Nc4ccc(CC#N)cc4)n3)CC2)C(C)(C)C)cc1 [4-a]	–	–	–	–	–	–	–	–	only a weak reduction in AURKA levels
Cc1ncsc1-c1ccc(CNC(=O)[C@@H]2C[C@H](O)CN2C(=O)[C@@H](NC(=O)CCOCCOCCOCCN2CCN(c3cc(Nc4cc(C5CC5)[nH]n4)nc(Nc4ccc(CC#N)cc4)n3)CC2)C(C)(C)C)cc1 [4-a^neg]	–	–	–	–	–	–	–	–	no effect on AURKA levels
CC(C)(C)OC(=O)NCCCOCCOCCOCCCNC(=O)c1cc(Nc2cc(C3CC3)[nH]n2)nc(Nc2ccc(CC#N)cc2)n1 [5-L]	14.2 °C	4.7 °C	13.3 °C	6.54 °C	0.51 °C	5.86 °C	5.96 °C	1.75 °C	–
